Here are results for three compounds from US20240352010A1, “SUBSTITUTED 1,2,4-THIADIAZOLYL NICOTINAMIDES, SALTS OR N-OXIDES THEREOF AND THEIR USE AS HERBICIDALLY ACTIVE SUBSTANCES” (BayerAktiengesellschaft, priority 2021, published 2024).

What all share (assay type): in vivo
The subject of test [1] is Abutilon theophrasti (ABUTH). The test is described as follows: Herbicidal post-emergence action, ABUTH. The note with it: 1280 g/ha, assessed visually after ca. 3 weeks vs untreated controls (Table B1). The text has this:
(§1) Seeds of mono- and dicotyledonous weed plants were sown in plastic pots (double sowings with one species of mono- and one species of dicotyledonous weed plants per pot), in sandy loam, covered with soil and grown under controlled growth conditions. 2 to 3 weeks after sowing, the test plants were sprayed in the single-leaf stage. The compounds according to the invention, formulated in the form of wettable powders (WP) or as emulsifiable concentrates (EC), were sprayed onto the green plant parts as an aqueous suspension or as an emulsion, with the addition of 0.5% of an additive, at an application rate of 600 litres of water per hectare (converted). The test plants were placed in the greenhouse for ca. 3 weeks under optimum growth conditions, and then the effect of the preparations is assessed visually in comparison with untreated controls (herbicidal effect in percent (%): 100% effect=plants have died, 0% effect=as control plants).

For test [2], the system named is Kochia scoparia (KCHSC). The test is described as follows: Herbicidal post-emergence action, KCHSC.
Excerpt: as §1, with “plants).[…]” for “plants).”

Test [3] deals with Lolium rigidum (LOLRI). The test is described as follows: Herbicidal pre-emergence action, LOLRI. The text has this:
(§2) Seeds of mono- and dicotyledonous weed plants were sown in plastic pots (double sowings with one species of mono- and one species of dicotyledonous weed plants per pot), in sandy loam, and covered with soil. The compounds according to the invention, formulated in the form of wettable powders (WP) or as emulsifiable concentrates (EC), were applied to the surface of the covering soil as an aqueous suspension or as an emulsion, with the addition of 0.5% of an additive, at an application rate of 600 litres of water per hectare (converted). Following treatment, the pots were placed in a greenhouse and kept under optimum growth conditions for the test plants. The visual grading of the damage to the test plants is carried out after ca. 3 weeks in comparison to untreated controls (herbicidal effect in percent (%): 100% effect=plants have died, 0% effect=as control plants). Seeds of mono- and dicotyledonous weed plants were sown in plastic pots (double sowings with one species of mono- and one species of dicotyledonous weed plants per pot), in sandy loam, and covered with soil. The compounds according to the invention, formulated in the form of wettable powders (WP) or as emulsifiable concentrates (EC), were applied to the surface of the covering soil as an aqueous suspension or as an emulsion, with the addition of 0.5% of an additive, at an application rate of 600 litres of water per hectare (converted). Following treatment, the pots were placed in a greenhouse and kept under optimum growth conditions for the test plants. The visual grading of the damage to the test plants is carried out after ca. 3 weeks in comparison to untreated controls (herbicidal effect in percent (%): 100% effect=plants have died, 0% effect=as control plants).

Test [4] has as its system Digitaria sanguinalis (DIGSA). The test is described as follows: Herbicidal pre-emergence action, DIGSA.
Excerpt: as §2

Test [5] has as its system Poa annua (POAAN). The test is described as follows: Herbicidal post-emergence action, POAAN.
Excerpt: as §1, with “plants).[…]” for “plants).”

Test [6] relates to Setaria viridis (SETVI). The test is described as follows: Herbicidal pre-emergence action, SETVI.
Excerpt: as §2

Test [7] concerns Poa annua (POAAN). The test is described as follows: Herbicidal pre-emergence action, POAAN.
Excerpt: as §2

For test [8], the system named is Setaria viridis (SETVI). The test is described as follows: Herbicidal post-emergence action, SETVI.
Excerpt: as §1, with “plants).[…]” for “plants).”

Test [9] deals with Alopecurus myosuroides (ALOMY). The test is described as follows: Herbicidal post-emergence action, ALOMY. The note with it: 1280 g/ha, assessed visually after ca. 3 weeks vs untreated controls (Table B2).
Excerpt: as §1

Test [10] has as its system Alopecurus myosuroides (ALOMY). The test is described as follows: Herbicidal pre-emergence action, ALOMY. The settings on record: 1280 g/ha, visual grading after ca. 3 weeks vs untreated controls (Table A12). The text has this: Seeds of mono- and dicotyledonous weed plants were sown in plastic pots (double sowings with one species of mono- and one species of dicotyledonous weed plants per pot), in sandy loam, and covered with soil. The compounds according to the invention, formulated in the form of wettable powders (WP) or as emulsifiable concentrates (EC), were applied to the surface of the covering soil as an aqueous suspension or as an emulsion, with the addition of 0.5% of an additive, at an application rate of 600 litres of water per hectare (converted). Following treatment, the pots were placed in a greenhouse and kept under optimum growth conditions for the test plants. The visual grading of the damage to the test plants is carried out after ca. 3 weeks in comparison to untreated controls (herbicidal effect in percent (%): 100% effect=plants have died, 0% effect=as control plants).

Setting [11] is: 320 g/ha, assessed visually after ca. 3 weeks vs untreated controls (Table D1).
The mark [12] stands for this setting: 1280 g/ha, assessed visually after ca. 3 weeks vs untreated controls (Table B4).
Where [13] appears, read: 320 g/ha, visual grading after ca. 3 weeks vs untreated controls (Table C2).
The mark [14] stands for this setting: 1280 g/ha, visual grading after ca. 3 weeks vs untreated controls (Table A5).
Setting [15] is: 1280 g/ha, visual grading after ca. 3 weeks vs untreated controls (Table A2).
Where [16] appears, read: 320 g/ha, assessed visually after ca. 3 weeks vs untreated controls (Table D3).
[17] abbreviates: 1280 g/ha, assessed visually after ca. 3 weeks vs untreated controls (Table B8).
The mark [18] stands for this setting: 320 g/ha, visual grading after ca. 3 weeks vs untreated controls (Table C5).
Where [19] appears, read: 1280 g/ha, visual grading after ca. 3 weeks vs untreated controls (Table A8).
Where [20] appears, read: 320 g/ha, visual grading after ca. 3 weeks vs untreated controls (Table C4).
Setting [21] is: 1280 g/ha, visual grading after ca. 3 weeks vs untreated controls (Table A7).

With `O=C(Nc1ncns1)c1c(C2CC2)ccnc1Cl` [Example I-003, 2-chloro-4-cyclopropyl-N-(1,2,4-thiadiazol-5-yl)pyridine-3-carboxamide], the “herbicidal effect in percent, ABUTH” value in test [1] amounted to 90%. In addition, the “herbicidal effect in percent, KCHSC” value in test [2] (setting [11]) was 90%; in [2] (setting [12]) it was 100%. Further, the “herbicidal effect in percent, LOLRI” value in test [3] (setting [13]) and in test [3] (setting [14]) was 90% throughout. The “herbicidal effect in percent, DIGSA” value in test [4] (setting [15]) is recorded as 90%. Further, the “herbicidal effect in percent, POAAN” value in test [5] (setting [16]) was determined as 90%; in [5] (setting [17]), 100%; in [7] (setting [20]) it was 90%; in test [7] (setting [21]) it was 100%. Besides, the “herbicidal effect in percent, SETVI” value in [6] (setting [18]) and in test [6] (setting [19]) was 100% throughout.
As to `O=C(Nc1ncns1)c1c(C2CC2)ccnc1F` [Example I-005], the “herbicidal effect in percent, KCHSC” value in [2] (setting [11]) and in test [2] (setting [12]) was 100% throughout. For the same compound, the “herbicidal effect in percent, LOLRI” value in [3] (setting [13]) and in test [3] (setting [14]) was 100% in each case. For the same compound, the “herbicidal effect in percent, DIGSA” value in test [4] (320 g/ha, visual grading after ca. 3 weeks vs untreated controls (Table C10)) worked out at 90%; in [4] (setting [15]), 90%. For the same compound, the “herbicidal effect in percent, SETVI” value was 90% in test [8] (320 g/ha, assessed visually after ca. 3 weeks vs untreated controls (Table D8)); 100% in test [8] (1280 g/ha, assessed visually after ca. 3 weeks vs untreated controls (Table B7)); 100% in test [6] (setting [18]); 100% in test [6] (setting [19]). The “herbicidal effect in percent, POAAN” value in test [5] (setting [16]), in test [5] (setting [17]), in [7] (setting [20]) and in [7] (setting [21]) was 100% in each case. In addition, the entries for the “herbicidal effect in percent, ALOMY” value in test [9] and in [10] were 90% and 100%, respectively.
For the compound `O=C(Nc1nc(Cl)ns1)c1c(C2CC2)ccnc1Cl` [Example I-013], the “herbicidal effect in percent, ABUTH” value in test [1] is recorded as 90%. In addition, the “herbicidal effect in percent, LOLRI” value in [3] (setting [14]) came out at 90%. Further, the “herbicidal effect in percent, POAAN” value in test [5] (setting [16]) and in [5] (setting [17]) was 90% throughout. The “herbicidal effect in percent, ALOMY” value in test [9] is given as 90%.
